Source: US9512087B2, “Hybrid molecules containing pharmacophores of fluconazole as antifungal agents and their preparation” (Council for Scientific & Industrial Research, priority 2011, dated 2016)
Values after ≈ are worked out from the molar mass of the structure shown.

Columns and labels:
Assay in all cases: Antifungal MIC, broth dilution
[1] = tested on: F. proliferatum ATCC 10052; format: cell-based, Fusarium proliferatum; details: Fusarium proliferatum, ATCC10052, RPMI 1640 with MOPS, end point 48 hours, read-out: Fp01 MIC50
Description: (§1) The compounds of Formula 1 were tested for antifungal activity against Candida albicans, Aspergillus niger and Fusarium proliferatum. In vitro evaluation of antifungal activity was performed by determining the minimum inhibitory concentration (MIC) following standard methods (CLSI: Reference method for broth dilution antifungal susceptibility testing of yeasts; Approved standard, second edition M27-A2, 2002; CLSI: Reference method for broth dilution antifungal susceptibility testing of filamentous fungi; Approved standard M38-A, 2002). Anti-fungal susceptibility testing of these anti-fungal compounds was done by broth dilution method using RPMI 1640 medium with MOPS buffer. Known anti-fungal agents like fluconazole and amphotericin-B were used as positive control. End points were determined after 48 hours visually and by using spectrophotometer wherever necessary. Different dilutions were tried and various sets of experiments performed. The activity parameters are enumerated in Table 5.

C. neoformans ATCC 34664 = format: cell-based; details: Cryptococcus neoformans, ATCC34664, RPMI 1640 with MOPS, end point 48 hours, read-out: Cn01 MIC50
A. niger ATCC 16404 = format: cell-based, Aspergillus niger; details: Aspergillus niger, ATCC16404, RPMI 1640 with MOPS, end point 48 hours, read-out: An01 MIC50
Description: as §1

C. tropicalis ATCC 750 = format: cell-based; details: Candida tropicalis, ATCC750, RPMI 1640 with MOPS, end point 48 hours, read-out: Ct01 MIC50
C. albicans ATCC 24433 = format: cell-based, Candida albicans; details: Candida albicans, ATCC24433, RPMI 1640 with MOPS, end point 48 hours; for MIC80: read-out: Ca01 A: MIC80; for MIC50: read-out: Ca01 B: MIC50
Description: as §1

C. glabrata ATCC 90030 = format: cell-based; details: Nakaseomyces glabratus, ATCC90030, RPMI 1640 with MOPS, end point 48 hours, read-out: Cg01 MIC50
A. fumigatus ATCC 46645 = format: cell-based; details: Aspergillus fumigatus, ATCC46645, RPMI 1640 with MOPS, end point 48 hours, read-out: Afm01 MIC50
C. krusei ATCC 6258 = format: cell-based; details: Pichia kudriavzevii, ATCC6258, RPMI 1640 with MOPS, end point 48 hours, read-out: Ck01 MIC50

SMILES	MIC50 [1] [mg/L]	MIC50 (C. neoformans ATCC 34664) [mg/L]	MIC50 (A. niger ATCC 16404) [mg/L]	MIC50 (C. tropicalis ATCC 750) [mg/L]	MIC80 (C. albicans ATCC 24433) [mg/L]	MIC50 (C. albicans ATCC 24433) [mg/L]	MIC50 (C. glabrata ATCC 90030) [mg/L]	MIC50 (A. fumigatus ATCC 46645) [mg/L]	MIC50 (C. krusei ATCC 6258) [mg/L]
O=C(c1ccc(OCC(O)(Cn2cncn2)c2ccc(F)cc2F)cc1)C(Br)C(Br)c1ccc(Cl)cc1Cl (stereo not drawn) [Compound 1B-1, 2,3-Dibromo-3-(2,4-dichlorophenyl)-1-(4-(2-(2,4-difluorophenyl)-2-hydroxy-3-(1H-1,2,4-triazol-1-yl)propoxy)phenyl)propan-1-one]	> 8	0.5 (≈ 0.724 µM)	> 8	1 (≈ 1.45 µM)	0.5 (≈ 0.724 µM)	0.25 (≈ 0.362 µM)	0.5 (≈ 0.724 µM)	> 8	2 (≈ 2.9 µM)
OC(/C=C/c1ccc(Cl)cc1Cl)c1ccc(OCC(O)(Cn2cncn2)c2ccc(F)cc2F)cc1 (stereo not drawn) [Compound 1C-1, (E)-3-(2,4-dichlorophenyl)-1-(4-(2-(2,4-difluorophenyl)-2-hydroxy-3-(1H-1,2,4-triazol-1-yl)propoxy)phenyl)prop-2-en-1-ol]	> 4	0.5 (≈ 0.939 µM)	> 4	1 (≈ 1.88 µM)	0.5 (≈ 0.939 µM)	0.5 (≈ 0.939 µM)	0.25 (≈ 0.47 µM)	> 4	4 (≈ 7.51 µM)
O=C(/C=C/c1ccc(Cl)cc1)c1ccc(OC[C@](O)(Cn2cncn2)c2ccc(F)cc2F)cc1 [R-(−)-1A-6, R-(−)-(E)-3-(4-chlorophenyl)-1-(4-(2-(2,4-difluorophenyl)-2-hydroxy-3-(1H-1,2,4-triazol-1-yl)propoxy)phenyl)prop-2-en-1-one]	> 4	0.25 (≈ 0.504 µM)	> 4	0.5 (≈ 1.01 µM)	0.12 (≈ 0.242 µM)	0.06 (≈ 0.121 µM)	0.12 (≈ 0.242 µM)	> 4	1 (≈ 2.02 µM)
O=C(/C=C/c1cccs1)c1ccc(OCC(O)(Cn2cncn2)c2ccc(F)cc2F)cc1 (stereo not drawn) [Compound 1A-13]	> 8	1 (≈ 2.14 µM)	> 8	0.5 (≈ 1.07 µM)	0.25 (≈ 0.535 µM)	0.12 (≈ 0.257 µM)	0.25 (≈ 0.535 µM)	> 8	8 (≈ 17.1 µM)
COc1ccc(C(=O)/C=C/c2ccc(OCC(O)(Cn3cncn3)c3ccc(F)cc3F)cc2)cc1 (stereo not drawn) [Compound 1A-20]	> 4	1 (≈ 2.03 µM)	> 4	1 (≈ 2.03 µM)	0.25 (≈ 0.509 µM)	0.12 (≈ 0.244 µM)	0.25 (≈ 0.509 µM)	8 (≈ 16.3 µM)	4 (≈ 8.14 µM)

Now from value to compound:

MIC50 [1] [mg/L]	MIC50 (C. neoformans ATCC 34664) [mg/L]	MIC50 (A. niger ATCC 16404) [mg/L]	MIC50 (C. tropicalis ATCC 750) [mg/L]	MIC80 (C. albicans ATCC 24433) [mg/L]	MIC50 (C. albicans ATCC 24433) [mg/L]	MIC50 (C. glabrata ATCC 90030) [mg/L]	MIC50 (A. fumigatus ATCC 46645) [mg/L]	MIC50 (C. krusei ATCC 6258) [mg/L]	SMILES
> 4	1 (≈ 1.83 µM)	> 4	1 (≈ 1.83 µM)	0.5 (≈ 0.915 µM)	0.5 (≈ 0.915 µM)	0.5 (≈ 0.915 µM)	> 4	4 (≈ 7.32 µM)	O=C(c1ccc(OCC(O)(Cn2cncn2)c2ccc(F)cc2F)cc1)C1OC1c1ccc(Cl)cc1Cl (stereo not drawn) [Compound 1B-2, (3-(2,4-dichlorophenyl)oxiran-2-yl) (4-(2-(2,4-difluorophenyl)-2-hydroxy-3-(1H-1,2,4-triazol-1-yl)propoxy)phenyl)methanone]
> 4	0.5 (≈ 1.1 µM)	> 4	2 (≈ 4.39 µM)	0.25 (≈ 0.549 µM)	0.12 (≈ 0.263 µM)	0.06 (≈ 0.132 µM)	> 4	1 (≈ 2.2 µM)	CCCCCC(=O)/C=C/c1ccc(OCC(O)(Cn2cncn2)c2ccc(F)cc2F)cc1 (stereo not drawn) [Compound 1A-26]
> 4	1 (≈ 2.03 µM)	4 (≈ 8.14 µM)	0.25 (≈ 0.509 µM)	0.12 (≈ 0.244 µM)	0.06 (≈ 0.122 µM)	0.25 (≈ 0.509 µM)	> 4	4 (≈ 8.14 µM)	COc1ccc(/C=C/C(=O)c2ccc(OCC(O)(Cn3cncn3)c3ccc(F)cc3F)cc2)cc1 (stereo not drawn) [Compound 1A-2]
> 4	1 (≈ 1.92 µM)	> 4	0.5 (≈ 0.959 µM)	0.5 (≈ 0.959 µM)	0.5 (≈ 0.959 µM)	1 (≈ 1.92 µM)	> 4	2 (≈ 3.83 µM)	COc1ccc(C(=O)/C=C/c2ccc(OCC(O)(Cn3cncn3)c3ccc(F)cc3F)c(OC)c2)cc1 (stereo not drawn) [Compound 1A-23]
